# Assay results taken from US20050014811A1, “Substituted benzimidazole compounds and their use for the treatment of cancer” (Aventis Pharma S.A., priority 2001, published 2005).
# Biological target: CDK4/CyclinD1 (Homo sapiens, UniProt P11802)
# Assay: CDK4/CyclinD1 Flashplate assay, 96-well format, biotinylated-Rb peptide substrate
# Type: biochemical
# Experimental: This is a CDK4/CyclinD1 kinase assay in a 96-well Streptavidin-coated Flashplate with a biotinylated-Rb peptide substrate.
# Each point is tested in duplicate
# Biotinylated-Rb: Biotin-[…]
# • 1. Prepare substrate: 1 mg/ml solution made fresh in PBS. • 2. Add 100 μg per well to the Flashplate. • 3. Incubate for 2 hours at RT. • 4. From 10 mM inhibitor stocks in DMSO, make 1 mM, 300 μM, 100 μM, 30 μM and 10 μM series of dilution in DMSO. • 5. Wash the Flashplate 3 times with 300 μl PBS to remove unbound peptide substrate. • 6. Add the CDK4/CyclinD1 kinase: 70 ng per well, in a volume of 90 μl in kinase buffer (except for “no enzyme” control wells). • 7. Add 1 μl^1 per well of inhibitor to test 10 μM, 3 μM, 1 μM, 0.3 μM and 0.1 μM in final concentration per 100 μl in each well. • 8. Shake gently the Flashplate 1 minute. • 9. Incubate 30 minutes on wet ice. • 10. Initiate the reaction with 10 μl kinase buffer containing 1 μM final cold ATP and 1 μCi final ^33P-ATP per well. • 11. Shake gently the Flashplate 1 minute. • 12. Incubate 45 minutes at RT (no shaking). • 13. Wash the Flashplate 3 times with 300 μl PBS • 14. Count to detect the incorporation of ^33P-ATP by the kinase to the Rb phosphorylation site.
# Sequence of CDK4/CyclinD1 (P11802 whole entry, species assumed): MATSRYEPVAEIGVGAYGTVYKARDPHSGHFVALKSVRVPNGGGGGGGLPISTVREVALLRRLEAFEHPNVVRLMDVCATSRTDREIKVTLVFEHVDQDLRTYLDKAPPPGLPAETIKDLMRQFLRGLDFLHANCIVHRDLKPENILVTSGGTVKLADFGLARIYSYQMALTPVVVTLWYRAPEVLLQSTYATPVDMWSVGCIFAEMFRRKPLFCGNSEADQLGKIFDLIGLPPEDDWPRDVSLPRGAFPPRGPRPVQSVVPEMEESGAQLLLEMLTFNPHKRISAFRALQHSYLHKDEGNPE
# Sequence of CDK4/CyclinD1 (P24385 whole entry partner, species assumed): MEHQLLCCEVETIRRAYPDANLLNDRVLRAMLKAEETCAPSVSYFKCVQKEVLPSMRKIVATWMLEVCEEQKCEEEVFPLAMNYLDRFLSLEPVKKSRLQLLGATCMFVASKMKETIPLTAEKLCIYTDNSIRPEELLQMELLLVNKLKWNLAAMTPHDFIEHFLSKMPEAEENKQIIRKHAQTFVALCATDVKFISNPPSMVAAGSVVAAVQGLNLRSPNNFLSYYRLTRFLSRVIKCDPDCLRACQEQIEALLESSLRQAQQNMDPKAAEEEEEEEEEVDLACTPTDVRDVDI
IC50 [nM],inhibition at 10 µM [%],Structure (SMILES)
800,,"CC(=O)NCCNc1ccc(S(=O)(=O)Oc2ccc3[nH]c(NC(=O)C4CC4)nc3c2)cc1 [Example 60-ac, 4-(2-Acetylamino-ethylamino)-benzenesulfonic acid 2-(cyclopropanecarbonyl-amino)-1H-benzoimidazol-5-yl ester]"
4000,,"NC(=O)C1CCCCC1Nc1ccc(S(=O)(=O)Oc2ccc3[nH]c(NC(=O)C4CC4)nc3c2)cc1 (centres unmarked) [Example 60-ab, 4-(2-Carbamoyl-cyclohexylamino)-benzenesulfonic acid 2-(cyclopropanecarbonyl-amino)-1H-benzoimidazol-5-yl ester]"
1600,,"COC(=O)Nc1nc2cc(OS(=O)(=O)c3cc(F)ccc3C)ccc2[nH]1 [Example 62-q, 5-Fluoro-2-methyl-benzenesulfonic acid 2-methoxycarbonylamino-1H-benzoimidazol-5-yl ester]"
2060,,COC(=O)Nc1nc2ccc(OS(=O)(=O)c3ccc(OC(F)(F)F)cc3)cc2[nH]1 [Example 61]
1800,,"CCN(CC)CCNc1ccc(S(=O)(=O)Oc2ccc3[nH]c(NC(=O)C4CC4)nc3c2)cc1 [Example 60-q, 4-(2-Diethylamino-ethylamino)-benzenesulfonic acid 2-(cyclopropanecarbonyl-amino)-1H-benzoimidazol-5-yl ester]"
,50,"COC(=O)Nc1nc2ccc(OS(=O)(=O)c3ccc(OCCN4CCOCC4)cc3)cc2[nH]1 [Example 64-b, 4-(2-Morpholin-4-yl-ethoxy)-benzenesulfonic acid 2-methoxycarbonylamino-3H-benzoimidazol-5-yl ester]"
1000,,"COC(=O)Nc1nc2cc(OS(=O)(=O)c3ccccc3C#N)ccc2[nH]1 [Example 62-n, 2-Cyano-benzenesulfonic acid 2-methoxycarbonylamino-1H-benzoimidazol-5-yl ester]"
,90,"O=C(NCCN1CCOCC1)Nc1nc2cc(OS(=O)(=O)c3ccc(NCc4ccccc4)cc3)ccc2[nH]1 [Example 78-w, 4-Benzylamino-benzenesulfonic acid 2-[3-(2-morpholin-4-yl-ethyl)-ureido]-1H-benzoimidazol-5-yl ester]"
3050,,"CCN(CC)CCCNC(=O)COc1ccc(S(=O)(=O)Oc2ccc3[nH]c(NC(=O)OC)nc3c2)cc1 [Example 66-b, 4-[(3-diethylamino-propylcarbamoyl)-methoxy]-benzenesulfonic acid 2-methoxycarbonylamino-1H-benzoimidazol-5-yl ester]"
300,,"CC(CO)Nc1ccc(S(=O)(=O)Oc2ccc3[nH]c(NC(=O)C4CC4)nc3c2)cc1 (centres unmarked) [Example 60-i, 4-(2-Hydroxy-1-methyl-ethylamino)-benzenesulfonic acid 2-(cyclopropanecarbonyl-amino)-1H-benzoimidazol-5-yl ester]"
900,,"O=C(Nc1nc2cc(OS(=O)(=O)c3ccc(NCCCO)cc3)ccc2[nH]1)C1CC1 [Example 60-d, 4-(3-Hydroxy-propylamino)-benzenesulfonic acid 2-(cyclopropanecarbonyl-amino)-1H-benzoimidazo1-5-yl ester]"
1000,,"COC(=O)Nc1nc2cc(OS(=O)(=O)c3ccccc3C(F)(F)F)ccc2[nH]1 [Example 62-o, 2-Trifluoromethyl-benzenesulfonic acid 2-methoxycarbonylamino-1H-benzoimidazol-5-yl ester]"
,92,"O=C(NCCN1CCOCC1)Nc1nc2ccc(OS(=O)(=O)c3ccc(NCc4ccccn4)cc3)cc2[nH]1 [Example 82-h, 4-[(Pyridin-2-ylmethyl)-amino]-benzene sulfonic acid 2-[3-(2-morpholin-4-yl-ethyl)-ureido]-3H-benzimidazol-5-yl ester]"

Structure (SMILES),IC50 [nM],inhibition at 10 µM [%]
"O=C(Nc1nc2cc(OS(=O)(=O)c3ccc(NC4CN5CCC4CC5)cc3)ccc2[nH]1)C1CC1 (centres unmarked) [Example 60-v, 4-(1-Aza-bicyclo[2.2.2]-oct-3-ylamino)-benzenesulfonic acid 2-(cyclopropane-carbonyl-amino)-1H-benzoimidazol-5-yl ester]",4200,
